Assay results: the NIST ThermoML archive (doi:10.1016/j.jct.2017.08.002)

Experiment: mn = molality of the nth substance listed, in mol/kg
Conditions: 101.33 kPa, Liquid; for speed of sound: Frequency=2 MHz, Linear variable-path acoustic interferometer; for mass density: Pycnometric method

O=C([O-])c1ccccc1O.[Na+] [sodium salicylate] + O
Conditions	mass density, 288.15 K [kg/m3]	mass density, 298.15 K [kg/m3]	mass density, 308.15 K [kg/m3]	speed of sound, 288.15 K [m/s]	speed of sound, 298.15 K [m/s]	speed of sound, 308.15 K [m/s]
m1 = 0.01	–	–	994.69	–	–	1520.8
m1 = 0.0101	999.8	997.73	–	1466.8	1497.6	–
m1 = 0.0221	1000.62	998.51	995.46	1467.9	1498.8	1521.9
m1 = 0.0307	1001.19	999.07	–	1468.7	1499.6	–
m1 = 0.0333	–	–	996.16	–	–	1523
m1 = 0.04	–	–	996.59	–	–	1523.6
m1 = 0.0448	1002.19	1000	–	1470	1501	–
m1 = 0.0451	–	–	996.9	–	–	1524.2
m1 = 0.0501	1002.51	1000.34	997.24	1470.5	1501.5	1524.6
m1 = 0.0546	1002.85	1000.67	–	1470.8	1501.9	–
m1 = 0.0572	–	–	997.65	–	–	1525.3
m1 = 0.06	1003.2	1001.01	–	1471.4	1502.4	–
m1 = 0.0667	1003.66	–	–	1472	–	–
m1 = 0.0702	–	–	998.5	–	–	1526.5
m1 = 0.0704	1003.92	1001.66	–	1472.3	1503.5	–
m1 = 0.0802	1004.55	1002.35	999.1	1473.2	1504.4	1527.5
m1 = 0.0848	1004.87	1002.59	–	1473.6	1504.9	–
m1 = 0.0857	–	–	999.47	–	–	1528
m1 = 0.0906	1005.23	–	999.8	1474.2	–	1528.4
m1 = 0.0907	–	1002.99	–	–	1505.4	–
m1 = 0.0951	–	1003.26	1000.07	–	1505.8	1528.9
m1 = 0.1018	–	1003.68	–	–	1506.5	–
m1 = 0.1019	1006	–	–	1475.2	–	–
m1 = 0.1023	–	–	1000.5	–	–	1529.6
